The record followed here is patent US12258354B2, “AhR modulators” (IDEAYA BIOSCIENCES, INC., priority 2018, dated 2025).

The structures appear in SMILES notation. A value given as a limit tells only on which side of the number the result lay.

The term IC50 denotes the concentration that gives 50% inhibition. A high value points to a need for much substance.

In this experiment the target is T1, hAhR (Homo sapiens, UniProt P35869).
T1 construct: Stably integrated DRE-luciferase cell lines were generated by transducing the both cell lines with Cignal XRE luciferase reporter; endogenous in cells; host or cells: HEPG2 DRE-Luc cells (only the XRE luciferase reporter was transduced)
T1 sequence (P35869 11-848): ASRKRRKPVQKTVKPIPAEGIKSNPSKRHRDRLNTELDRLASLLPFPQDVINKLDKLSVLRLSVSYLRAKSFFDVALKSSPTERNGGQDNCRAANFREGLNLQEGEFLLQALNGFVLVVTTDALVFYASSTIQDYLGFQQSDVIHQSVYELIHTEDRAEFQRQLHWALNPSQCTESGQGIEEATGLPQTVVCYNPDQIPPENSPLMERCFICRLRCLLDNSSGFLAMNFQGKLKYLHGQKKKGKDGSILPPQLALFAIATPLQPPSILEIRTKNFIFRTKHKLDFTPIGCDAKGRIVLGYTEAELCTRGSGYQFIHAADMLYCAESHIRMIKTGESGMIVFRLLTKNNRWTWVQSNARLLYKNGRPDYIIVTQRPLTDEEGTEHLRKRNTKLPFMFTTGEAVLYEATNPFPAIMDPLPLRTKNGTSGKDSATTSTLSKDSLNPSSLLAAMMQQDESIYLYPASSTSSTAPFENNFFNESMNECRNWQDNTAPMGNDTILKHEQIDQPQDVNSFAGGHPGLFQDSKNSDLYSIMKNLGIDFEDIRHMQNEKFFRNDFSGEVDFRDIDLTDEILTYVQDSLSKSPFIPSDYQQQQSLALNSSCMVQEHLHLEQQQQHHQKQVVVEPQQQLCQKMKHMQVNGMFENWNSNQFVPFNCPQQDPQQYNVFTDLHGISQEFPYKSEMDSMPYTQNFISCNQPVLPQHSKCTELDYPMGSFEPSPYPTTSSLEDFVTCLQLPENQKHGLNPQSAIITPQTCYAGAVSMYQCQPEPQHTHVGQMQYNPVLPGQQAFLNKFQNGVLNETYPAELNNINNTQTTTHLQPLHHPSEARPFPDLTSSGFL
In words: DRE-luciferase transcriptional reporter assay in HEPG2 DRE-Luc cells, TCDD-induced (antagonist mode). Type of experiment: cell-based. Particulars: relative IC50, 3 nM TCDD, 24-hour incubation, firefly luciferase readout. How it is done: HEPG2 and HEPA1C1C7 cells were maintained in MEM and αMEM without nucleosides supplemented with 10% heat inactivated FBS respectively. Stably integrated DRE-luciferase cell lines were generated by transducing the both cell lines with Cignal XRE luciferase reporter (Qiagen) lentiviral particles according to the manufacturer protocol. For both cell lines stably integrated reporter cell lines were selected for the presence of 2 μg/mL puromycin. Following selection of stably integrated cell line pools, clonal cell lines were isolated by limiting dilution in 96-well plates. Transcriptional assays were performed by seeding 100 μL of cells at a density of 250,000 or 100,000 cells/mL, for HEPG2 and HEPA1C1C7 DRE-Luc cells respectively, into 96-well cell culture plates in OptiMEM supplemented with 0.5% heat inactivated FBS and allowed to attach overnight. For modulator assays, the compounds were added in a semi-log dose response using a D300e Digital Dispenser (Tecan) followed normalization with vehicle (DMSO). Immediately following compound addition 10 μL of 2,3,7,8-Tetrachlorodibenzo-p-dioxin (TCDD) was added to the cells to a final concentration of 3 nM or 0.3 nM for the HEPG2 and HEPA1C1C7 DRE-Luc cells respectively. Following 24-hour incubation, the medium was removed and the cells were lysed in 25 μL of Reporter Lysis Buffer (Promega). Firefly luciferase activity was measured immediately following the addition of 50 μL Luciferase Assay Reagent (Promega). The percent maximal activity for each point was determined using the following equation: (RLUsample−RLUvehicle−TCDD)/(RLUvehicle+TCDD RLUvehicle−TCDD)*100. The relative IC50, defined as the compound concentration required to reduce the TCDD induced response between the top and bottom plateau of each individual dose response curve by half, for each compound was determined using Prism 7 (GraphPad Software).
(In general: In a reporter assay the amount or activity of a reporter protein is the signal.)
`Cc1cc(-c2ncc3cc(C(F)(F)F)ccc3n2)ccc1N1CCn2nc(N)c(C)c2C1=O` [Example 113, 2-amino-3-methyl-5-(2-methyl-4-(6-(trifluoromethyl)quinazolin-2-yl)phenyl)-6,7-dihydropyrazolo[1,5-a]pyrazin-4 (5H)-one] registered an IC50 of less than 200 nM.
Under `Cc1cc(-c2ncc3cc(C(F)(F)F)ccc3n2)ccc1N1CC(CO)n2ncc(C)c2C1=O` (centres unmarked) [Example 114, 7-(hydroxymethyl)-3-methyl-5-(2-methyl-4-(6-(trifluoromethyl)quinazolin-2-yl)phenyl)-6,7-dihydropyrazolo[1,5-a]pyrazin-4 (5H)-one] stands less than 200 nM; under `Cc1cc(-c2ncc3nc(C(F)(F)F)ccc3n2)ccc1N1CCOc2cnn(C)c2C1=O` [compound 001, 1-methyl-7-(2-methyl-4-(6-(trifluoromethyl)pyrido[3,2-d]pyrimidin-2-yl)phenyl)-6,7-dihydro-1H-pyrazolo[3,4-f][1,4]oxazepin-8 (5H)-one], less than 200 nM; under `Cc1cc(-c2ncc3cc(C(F)(F)F)ccc3n2)ccc1N1CCn2ncc(C)c2C1=O` [compound 002, 3-methyl-5-(2-methyl-4-(6-(trifluoromethyl)quinazolin-2-yl)phenyl)-6,7-dihydropyrazolo[1,5-a]pyrazin-4 (5H)-one], less than 200 nM.
Under `Cc1cc(N2CCn3ncc(C)c3C2=O)c(C)cc1-c1ncc2cc(C(F)(F)F)ccc2n1` [compound 003, 5-(2,5-dimethyl-4-(6-(trifluoromethyl)quinazolin-2-yl)phenyl)-3-methyl-6,7-dihydropyrazolo[1,5-a]pyrazin-4 (5H)-one] stands 200 to 500 nM; under `Cc1cc(-c2ncc3nc(C(F)(F)F)ccc3n2)ccc1N1CCc2cnn(C)c2C1=O` [compound 004, 1-methyl-6-(2-methyl-4-(6-(trifluoromethyl)pyrido[3,2-d]pyrimidin-2-yl)phenyl)-1,4,5,6-tetrahydro-7H-pyrazolo[3,4-c]pyridin-7-one], less than 200 nM; under `Cc1cc(N2CCOc3cnn(C)c3C2=O)c(C)cc1-c1ccc2nc(C(F)(F)F)cc(C)c2n1` [compound 005, 7-(2,5-dimethyl-4-(8-methyl-6-(trifluoromethyl)-1,5-naphthyridin-2-yl)phenyl)-1-methyl-6,7-dihydro-1H-pyrazolo[3,4-f][1,4]oxazepin-8 (5H)-one], less than 200 nM.
To `Cc1cc(-c2ccc3nc(C(F)(F)F)ccc3n2)ccc1N1CCn2ncc(C)c2C1=O` [compound 006, 3-methyl-5-(2-methyl-4-(6-(trifluoromethyl)-1,5-naphthyridin-2-yl)phenyl)-6,7-dihydropyrazolo[1,5-a]pyrazin-4 (5H)-one] belongs less than 200 nM; to `Cc1cc(N2CCn3ncc(C)c3C2=O)c(F)cc1-c1ccc2nc(C(F)(F)F)ccc2n1` [compound 007, 5-(2-fluoro-5-methyl-4-(6-(trifluoromethyl)-1,5-naphthyridin-2-yl)phenyl)-3-methyl-6,7-dihydropyrazolo[1,5-a]pyrazin-4 (5H)-one], less than 200 nM; to `Cc1cc(-c2ccc3cc(C(F)(F)F)ccc3n2)ccc1N1CCn2ncc(C)c2C1=O` [compound 008, 3-methyl-5-(2-methyl-4-(6-(trifluoromethyl)quinolin-2-yl)phenyl)-6,7-dihydropyrazolo-[1,5-a]pyrazin-4 (5H)-one], less than 200 nM.
The molecule `Cc1cc(-c2ncc3cc(C(F)(F)F)cc(C)c3n2)ccc1N1CCn2ncc(C)c2C1=O` [compound 009, 3-methyl-5-(2-methyl-4-(8-methyl-6-(trifluoromethyl)quinazolin-2-yl)phenyl)-6,7-dihydropyrazolo[1,5-a]pyrazin-4 (5H)-one] gave an IC50 of less than 200 nM.
Under `Cc1cc(N2CCc3cnn(C)c3C2=O)c(C)cc1-c1ccc2nc(C(F)(F)F)ccc2n1` [compound 010, 6-(2,5-dimethyl-4-(6-(trifluoromethyl)-1,5-naphthyridin-2-yl)phenyl)-1-methyl-1,4,5,6-tetrahydro-7H-pyrazolo[3,4-c]pyridin-7-one] stands 1000 to 10000 nM; under `Cc1cc(N2CCc3cnn(C)c3C2=O)c(F)cc1-c1ccc2nc(C(F)(F)F)ccc2n1` [compound 011, 6-(2-fluoro-5-methyl-4-(6-(trifluoromethyl)-1,5-naphthyridin-2-yl)phenyl)-1-methyl-1,4,5,6-tetrahydro-7H-pyrazolo[3,4-c]pyridin-7-one], less than 200 nM; under `Cc1cc(N2CCOc3cnn(C)c3C2=O)c(F)cc1-c1ccc2nc(C(F)(F)F)ccc2n1` [compound 012, 7-(2-fluoro-5-methyl-4-(6-(trifluoromethyl)-1,5-naphthyridin-2-yl)phenyl)-1-methyl-6,7-dihydro-1H-pyrazolo[3,4-f][1,4]oxazepin-8 (5H)-one], 500 to 1000 nM.
Under `Cc1cnn2c1C(=O)N(c1ccc(-c3ncc4cc(C(F)(F)F)ccc4n3)cc1F)CC2` [compound 013, 5-(2-fluoro-4-(6-(trifluoromethyl)quinazolin-2-yl)phenyl)-3-methyl-6,7-dihydropyrazolo[1,5-a]pyrazin-4 (5H)-one] stands less than 200 nM; under `Cc1cc(-c2ncc3cc(C(F)(F)F)ccc3n2)ccc1N1Cc2cnn(C)c2C1=O` [compound 014, 1-methyl-5-(2-methyl-4-(6-(trifluoromethyl)quinazolin-2-yl)phenyl)-4,5-dihydropyrrolo[3,4-c]pyrazol-6 (1H)-one], less than 200 nM; under `Cc1cc(-c2ncc3cc(C(F)(F)F)ccc3n2)ccc1N1CCc2cnn(C)c2C1=O` [compound 015, 1-methyl-6-(2-methyl-4-(6-(trifluoromethyl)quinazolin-2-yl)phenyl)-1,4,5,6-tetrahydro-7H-pyrazolo[3,4-c]pyridin-7-one], less than 200 nM.
Under `Cc1cc(-c2ncc3nc(C(F)(F)F)ccc3n2)ccc1N1CCn2ncc(C)c2C1=O` [compound 016, 3-methyl-5-(2-methyl-4-(6-(trifluoromethyl)pyrido[3,2-d]pyrimidin-2-yl)phenyl)-6,7-dihydropyrazolo[1,5-a]pyrazin-4 (5H)-one] stands less than 200 nM; under `Cc1cc(-c2ccc3nc(C(F)(F)F)cc(C)c3n2)ccc1N1CCn2ncc(C)c2C1=O` [compound 017, 3-methyl-5-(2-methyl-4-(8-methyl-6-(trifluoromethyl)-1,5-naphthyridin-2-yl)phenyl)-6,7-dihydropyrazolo[1,5-a]pyrazin-4 (5H)-one], less than 200 nM; under `Cc1cc(N2CCn3ncc(C)c3C2=O)c(C)cc1-c1ccc2nc(C(F)(F)F)ccc2n1` [compound 018, 5-(2,5-dimethyl-4-(6-(trifluoromethyl)-1,5-naphthyridin-2-yl)phenyl)-3-methyl-6,7-dihydropyrazolo[1,5-a]pyrazin-4 (5H)-one], 200 to 500 nM.
For the molecule `Cc1cc(N2CCn3ncc(C)c3C2=O)c(C)cc1-c1ncc2nc(C(F)(F)F)ccc2n1` [compound 019, 5-(2,5-dimethyl-4-(6-(trifluoromethyl)pyrido[3,2-d]pyrimidin-2-yl)phenyl)-3-methyl-6,7-dihydropyrazolo[1,5-a]pyrazin-4 (5H)-one], the IC50 was less than 200 nM.
In turn, `Cc1cc(N2CCn3ncc(C)c3C2=O)c(C)cc1-c1ccc2nc(C(F)(F)F)cc(C)c2n1` [compound 020, 5-(2,5-dimethyl-4-(8-methyl-6-(trifluoromethyl)-1,5-naphthyridin-2-yl)phenyl)-3-methyl-6,7-dihydropyrazolo[1,5-a]pyrazin-4 (5H)-one] showed an IC50 of less than 200 nM.
To `Cc1cc(N2CCn3ncc(C)c3C2=O)c(F)cc1-c1ncc2nc(C(F)(F)F)ccc2n1` [compound 021, 5-(2-fluoro-5-methyl-4-(6-(trifluoromethyl)pyrido[3,2-d]pyrimidin-2-yl)phenyl)-3-methyl-6,7-dihydropyrazolo[1,5-a]pyrazin-4 (5H)-one] belongs less than 200 nM.
